# Read-outs that look alike come from different tables or passages of the source.
# How the values were obtained:
# P. aeruginosa ATCC 27853 = assay: MIC assay, CLSI broth microdilution, P. aeruginosa ATCC 27853 (APAE001); assay type: cell-based; details: Pseudomonas aeruginosa, read-out: MIC APAE001
# Protocol: (§1) Minimum inhibitory concentrations (MIC) were determined by reference Clinical and Laboratory Standards Institute (CLSI) broth microdilution methods per M7-A7 [2006]. Quality control ranges utilizing E. coli ATCC 25922, P. aeruginosa ATCC 27853 and S. aureus ATCC 29213, and interpretive criteria for comparator agents were as published in CLSI M100-S17 [2007]. Briefly, serial two-fold dilutions of the test compounds were prepared at 2× concentration in Mueller Hinton Broth. The compound dilutions were mixed in 96-well assay plates in a 1:1 ratio with bacterial inoculum. The inoculum was prepared by suspension of a colony from an agar plate that was prepared the previous day. Bacteria were suspended in sterile saline and added to each assay plate to obtain a final concentration of 5×10^5 CFU/mL. The plates were incubated at 35° C. for 20 hours in ambient air.
# E. coli ATCC 25922 = assay: MIC assay, CLSI broth microdilution, E. coli ATCC 25922 (AECO001); assay type: cell-based; details: for MIC: Escherichia coli, read-out: MIC AECO001
# Protocol: as §1
# These MIC assays were conducted following the same protocol as set forth in Example 110. As shown, substituted sisomicin derivatives with groups other than methyl at the 6′-position have improved activity against strains expressing the AAC6′-modifying enzymes.
Compound,"MIC (P. aeruginosa ATCC 27853; ATCC27853, 20 h)","MIC (E. coli ATCC 25922; ATCC25922, 20 h)","MIC (P. aeruginosa ATCC 27853; APAE001 is ATCC27853, 35° C., 20 hours)","MIC (E. coli ATCC 25922; AECO001 is ATCC25922, 35° C., 20 hours)","MIC AECO001 (E. coli ATCC 25922; Table 3, E. coli ATCC25922)"
"CN[C@@H]1[C@@H](O)[C@@H](O[C@@H]2[C@@H](O)[C@H](O[C@H]3OC(CNCC4(N)CCC4)=CC[C@H]3N)[C@@H](N)C[C@H]2NC(=O)[C@@H](O)CN)OC[C@]1(C)O [Example 56, 6′-(Methyl-1-amino-cyclobutyl)-1-(3-amino-2(S)-hydroxy-propionyl)-sisomicin]",> 16 µg/mL,< 1 µg/mL,,,
"CN[C@@H]1[C@@H](O)[C@@H](O[C@@H]2[C@@H](O)[C@H](O[C@H]3OC(CNC[C@H]4C[C@H](N)C4)=CC[C@H]3N)[C@@H](N)C[C@H]2NC(=O)[C@@H](O)CN)OC[C@]1(C)O [Example 59, 6′-(Methyl-trans-3-amino-cyclobutyl)-1-(3-amino-2(S)-hydroxy-propionyl)-sisomicin]",1 to 16 µg/mL,< 1 µg/mL,,,
CN[C@@H]1[C@@H](O)[C@@H](O[C@@H]2[C@@H](O)[C@H](O[C@H]3OC(CNC[C@H]4C[C@H](N)C4)=CC[C@H]3N)[C@@H](N)C[C@H]2NC(=O)C2(O)CC(N)C2)OC[C@]1(C)O (stereo partly drawn) [Example 60],1 to 16 µg/mL,< 1 µg/mL,,,
CNCC1=CC[C@@H](N)[C@@H](O[C@H]2[C@H](O)[C@@H](O[C@H]3OC[C@](C)(O)[C@H](NC)[C@H]3O)[C@H](NC(=O)C3(O)CNC3)C[C@@H]2N)O1 [Example 61],,,1 to 16 µg/mL,< 1 µg/mL,1 µg/mL
CN[C@@H]1[C@@H](O)[C@@H](O[C@@H]2[C@@H](O)[C@H](O[C@H]3OC(CNCCO)=CC[C@H]3N)[C@@H](N)C[C@H]2NC(=O)C2(O)CC(N)C2)OC[C@]1(C)O (stereo partly drawn) [Example 62],1 to 16 µg/mL,< 1 µg/mL,,,
CN[C@@H]1[C@@H](O)[C@@H](O[C@@H]2[C@@H](O)[C@H](O[C@H]3OC(CNC[C@H]4C[C@H](N)C4)=CC[C@H]3N)[C@@H](N)C[C@H]2NC(=O)C2(O)CNC2)OC[C@]1(C)O [Example 63],1 to 16 µg/mL,< 1 µg/mL,,,
"CN[C@@H]1[C@@H](O)[C@@H](O[C@@H]2[C@@H](O)[C@H](O[C@H]3OC(CNC[C@@H]4C[C@H](N)CN4)=CC[C@H]3N)[C@@H](N)C[C@H]2NC(=O)[C@@H](O)CN)OC[C@]1(C)O [Example 65, 6′-(Methyl-4(S)-amino-pyrrolidin-2(S)-yl)-1-(3-amino-2(S)-hydroxy-propionyl)-sisomicin]",1 to 16 µg/mL,1 to 16 µg/mL,,,
"CN[C@@H]1[C@@H](O)[C@@H](O[C@@H]2[C@@H](O)[C@H](O[C@H]3OC(CNCC4(CN)CC4)=CC[C@H]3N)[C@@H](N)C[C@H]2NC(=O)[C@@H](O)CN)OC[C@]1(C)O [Example 66, 6′-(Methyl-1-aminomethyl-cyclopropyl)-1-(3-amino-2(S)-hydroxy-propionyl)-sisomicin]",1 to 16 µg/mL,< 1 µg/mL,,,
"CN[C@@H]1[C@@H](O)[C@@H](O[C@@H]2[C@@H](O)[C@H](O[C@H]3OC(CNCC4(N)CC4)=CC[C@H]3N)[C@@H](N)C[C@H]2NC(=O)[C@@H](O)CN)OC[C@]1(C)O [Example 67, 6′-(Methyl-1-Amino-cyclopropyl)-1-(3-amino-2(S)-hydroxy-propionyl)-sisomicin]",1 to 16 µg/mL,1 to 16 µg/mL,,,
"CN[C@@H]1[C@@H](O)[C@@H](O[C@@H]2[C@@H](O)[C@H](O[C@H]3OC(CNCC(O)CCN)=CC[C@H]3N)[C@@H](N)C[C@H]2NC(=O)[C@@H](O)CN)OC[C@]1(C)O (stereo partly drawn) [Example 68, 6′-(2-Hydroxy-4-amino-butyl)-1-(3-amino-2(S)-hydroxy-propionyl)-sisomicin]",1 to 16 µg/mL,1 to 16 µg/mL,,,
"CN[C@@H]1[C@@H](O)[C@@H](O[C@@H]2[C@@H](O)[C@H](O[C@H]3OC(CNC[C@H]4C[C@@H](N)[C@@H](O)C4)=CC[C@H]3N)[C@@H](N)C[C@H]2NC(=O)[C@@H](O)CN)OC[C@]1(C)O [Example 69, 6′-(Methyl-1(R)-amino-2(S)-hydroxy-cyclopent-4(S)-yl)-1-(3-amino-2(S)-hydroxy-propionyl)-sisomicin]",1 to 16 µg/mL,< 1 µg/mL,,,
"CN[C@@H]1[C@@H](O)[C@@H](O[C@@H]2[C@@H](O)[C@H](O[C@H]3OC(CNCCC4(O)CNC4)=CC[C@H]3N)[C@@H](N)C[C@H]2NC(=O)[C@@H](O)CN)OC[C@]1(C)O [Example 70, 6′-(Ethyl-2-(3-hydroxy-azetidin-3-yl))-1-(3-amino-2(S)-hydroxy-propionyl)-sisomicin]",> 16 µg/mL,1 to 16 µg/mL,,,
"CN[C@@H]1[C@@H](O)[C@@H](O[C@@H]2[C@@H](O)[C@H](O[C@H]3OC(CNCC4CC4)=CC[C@H]3N)[C@@H](N)C[C@H]2NC(=O)C(O)C2CNC2)OC[C@]1(C)O (stereo partly drawn) [Example 71, 6′-Methylcyclopropyl-1-(2-(azetidin-3-yl)-2-hydroxy-acetyl)-sisomicin]",> 16 µg/mL,1 to 16 µg/mL,,,
"CN[C@@H]1[C@@H](O)[C@@H](O[C@@H]2[C@@H](O)[C@H](O[C@H]3OC(CNC[C@H]4C[C@H](N)C4)=CC[C@H]3N)[C@@H](N)C[C@H]2NC(=O)C(O)C2CNC2)OC[C@]1(C)O (stereo partly drawn) [Example 72, 6′-(Methyl-trans-3-amino-cyclobutyl)-1-(2-(azetidin-3-yl)-2-hydroxy-acetyl)-sisomicin]",1 to 16 µg/mL,1 to 16 µg/mL,,,
"CN[C@@H]1[C@@H](O)[C@@H](O[C@@H]2[C@@H](O)[C@H](O[C@H]3OC(CNCC4CNC4)=CC[C@H]3N)[C@@H](N)C[C@H]2NC(=O)[C@@H](O)CN)OC[C@]1(C)O [Example 73, 6′-(Methyl-azetidin-3-yl)-1-(3-amino-2(S)-hydroxy-propionyl)-sisomicin]",1 to 16 µg/mL,1 to 16 µg/mL,,,
"CN[C@@H]1[C@@H](O)[C@@H](O[C@@H]2[C@@H](O)[C@H](O[C@H]3OC(CNCC4(CN)CC4)=CC[C@H]3N)[C@@H](N)C[C@H]2NC(=O)C(O)C2CNC2)OC[C@]1(C)O (stereo partly drawn) [Example 74, 6′-(Methyl-1-aminomethyl-cyclopropyl)-1-(2-(azetidin-3-yl)-2-hydroxy-acetyl)-sisomicin]",> 16 µg/mL,1 to 16 µg/mL,,,
"CN[C@@H]1[C@@H](O)[C@@H](O[C@@H]2[C@@H](O)[C@H](O[C@H]3OC(CNCCO)=CC[C@H]3N)[C@@H](N)C[C@H]2NC(=O)C(O)C2CNC2)OC[C@]1(C)O (stereo partly drawn) [Example 75, 6′-(2-Hydroxy-ethyl)-1-(2-(azetidin-3-yl)-2-hydroxy-acetyl)-sisomicin]",> 16 µg/mL,1 to 16 µg/mL,,,
"CN[C@@H]1[C@@H](O)[C@@H](O[C@@H]2[C@@H](O)[C@H](O[C@H]3OC(CNCCCN)=CC[C@H]3N)[C@@H](N)C[C@H]2NC(=O)C(O)C2CNC2)OC[C@]1(C)O (stereo partly drawn) [Example 76, 6′-(3-Amino-propyl)-1-(2-(azetidin-3-yl)-2-hydroxy-acetyl)-sisomicin]",1 to 16 µg/mL,1 to 16 µg/mL,,,
"CN[C@@H]1[C@@H](O)[C@@H](O[C@@H]2[C@@H](O)[C@H](O[C@H]3OC(CNCC(O)CCN)=CC[C@H]3N)[C@@H](N)C[C@H]2NC(=O)C(O)C2CNC2)OC[C@]1(C)O (stereo partly drawn) [Example 77, 6′-(2-Hydroxy-4-amino-butyl)-1-(2-(azetidin-3-yl)-2-hydroxy-acetyl)-sisomicin]",1 to 16 µg/mL,1 to 16 µg/mL,,,
"CN[C@@H]1[C@@H](O)[C@@H](O[C@@H]2[C@@H](O)[C@H](O[C@H]3OC(CNC[C@H]4C[C@H](N)C4)=CC[C@H]3N)[C@@H](N)C[C@H]2NC(=O)C2(O)CCNC2)OC[C@]1(C)O (stereo partly drawn) [Example 78, 6′-(Methyl-trans-3-amino-cyclobutyl)-1-(3-hydroxy-pyrrolidin-3-yl-acetyl)-sisomicin]",1 to 16 µg/mL,< 1 µg/mL,,,
CN[C@@H]1[C@@H](O)[C@@H](O[C@@H]2[C@@H](O)[C@H](O[C@H]3OC(CNCC4(CN)CC4)=CC[C@H]3N)[C@@H](N)C[C@H]2NC(=O)C2(O)CCNC2)OC[C@]1(C)O (stereo partly drawn) [Example 79],> 16 µg/mL,1 to 16 µg/mL,,,
"CN[C@@H]1[C@@H](O)[C@@H](O[C@@H]2[C@@H](O)[C@H](O[C@H]3OC(CNCCCC(O)CN)=CC[C@H]3N)[C@@H](N)C[C@H]2NC(=O)[C@@H](O)CN)OC[C@]1(C)O (stereo partly drawn) [Example 80, 6′-(4-Hydroxy-5-amino-pentyl)-1-(3-amino-2(S)-hydroxy-propionyl)-sisomicin]",< 1 µg/mL,< 1 µg/mL,,,
"CN[C@@H]1[C@@H](O)[C@@H](O[C@@H]2[C@@H](O)[C@H](O[C@H]3OC(CNCCNC4CNC4)=CC[C@H]3N)[C@@H](N)C[C@H]2NC(=O)[C@@H](O)CN)OC[C@]1(C)O [Example 81, 6′-(N-(Azetidin-3-yl)-2-amino-ethyl)-1-(3-amino-2(S)-hydroxy-propionyl)-sisomicin]",> 16 µg/mL,1 to 16 µg/mL,,,
"CN[C@@H]1[C@@H](O)[C@@H](O[C@@H]2[C@@H](O)[C@H](O[C@H]3OC(CNCC(O)CN)=CC[C@H]3N)[C@@H](N)C[C@H]2NC(=O)C(O)C2CNC2)OC[C@]1(C)O (stereo partly drawn) [Example 82, 6′-(2-Hydroxy-3-amino-propyl)-1-(2-(azetidin-3-yl)-2-hydroxy-acetyl)-sisomicin]",> 16 µg/mL,1 to 16 µg/mL,,,
"CN[C@@H]1[C@@H](O)[C@@H](O[C@@H]2[C@@H](O)[C@H](O[C@H]3OC(CNCC4(O)CC(N)C4)=CC[C@H]3N)[C@@H](N)C[C@H]2NC(=O)C(O)C2CNC2)OC[C@]1(C)O (stereo partly drawn) [Example 83, 6′-(Methyl-3-amino-1-hydroxy-cyclobutyl)-1-(2-(azetidin-3-yl)-2-hydroxy-acetyl)-sisomicin]",> 16 µg/mL,1 to 16 µg/mL,,,

# — patent US11117915B2, “Antibacterial aminoglycoside analogs” (Cipla USA, Inc., priority 2007, dated 2021)
